Target: T1, General amino acid permease AGP1 (Saccharomyces cerevisiae (strain ATCC 204508 / S288c), UniProt P25376)
T1 sequence (P25376 whole entry): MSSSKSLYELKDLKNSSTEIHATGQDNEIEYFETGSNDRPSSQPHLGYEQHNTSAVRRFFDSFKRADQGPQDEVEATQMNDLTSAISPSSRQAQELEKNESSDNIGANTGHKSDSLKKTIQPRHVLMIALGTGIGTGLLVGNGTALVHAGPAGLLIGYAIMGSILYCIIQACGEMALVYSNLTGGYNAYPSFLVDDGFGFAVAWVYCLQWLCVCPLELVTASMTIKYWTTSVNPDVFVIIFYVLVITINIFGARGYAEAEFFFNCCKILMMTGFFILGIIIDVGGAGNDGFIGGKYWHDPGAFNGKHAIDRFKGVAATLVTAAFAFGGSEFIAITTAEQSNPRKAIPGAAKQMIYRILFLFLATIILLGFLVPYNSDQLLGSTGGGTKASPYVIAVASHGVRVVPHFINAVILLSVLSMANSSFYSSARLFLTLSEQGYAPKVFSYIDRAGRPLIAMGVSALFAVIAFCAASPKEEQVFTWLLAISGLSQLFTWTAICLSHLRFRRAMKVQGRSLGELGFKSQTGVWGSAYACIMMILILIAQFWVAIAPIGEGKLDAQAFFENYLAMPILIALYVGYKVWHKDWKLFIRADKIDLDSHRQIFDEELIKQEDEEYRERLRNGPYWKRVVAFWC
Experiment: AGP1-GFP level modulation, analog dose series – cell-based, flow cytometry, S. cerevisiae, cherry pick 3, SAR follow-up (AID 488790)
Details: inactive by the depositor's call

SMILES | EC50
Cc1ccc(C(=O)Nc2nc(-c3ccccn3)cs2)o1 [5-methyl-N-[4-(2-pyridinyl)-2-thiazolyl]-2-furancarboxamide] | 775 µM
Nc1ncnc(Nc2cc(Cl)cc(Cl)c2)c1[N+](=O)[O-] [MLS000581561] | 76.4 µM

Reference: BindingDB's records for doi:10.7270/Q28P5XZM (Nmmlsc, 2011)
